Values of other authors as cited in patent US8445527B2, “Organic compounds and their uses” (Novartis AG, priority 2006, dated 2013).

System: HCV
Details: ribavirin alone

In the case of `NC(=O)c1ncn([C@@H]2O[C@H](CO)[C@@H](O)[C@H]2O)n1` [Ribavirin, 1-β-D-ribofuranosyl-1-1,2,4-triazole-3-caroxamide], the “patients in whom serum amino transferase levels are reduced to normal” value is given as 40% and the “serum levels of HCV-RNA” value is given as “does not lower”.
